Laboratory results reported in PMC8764033, “Single-molecule analysis of specificity and multivalency in binding of short linear substrate motifs to the APC/C” (Nature Communications, 2022).
Several values for one entry are separate records, joined by “and”; a condition that tells them apart may be missing. Identical values can stand only once. Entries after “also recorded” stand apart in the source; their conditions may differ. Where a SMILES comes first, the peptide text is derived from it.

Key:
Format in all cases: binding
Cdh1^WD40 = molecular target: T1, Cdh1^WD40 (Saccharomyces cerevisiae, UniProt P53197); assay: SMOR assay (single-molecule off-rate, TIRF), yeast Cdh1^WD40
T1 construct: the WD40 domains of yeast Cdh1 (aa 241–550; pNH144); made in house; host or cells: Sf9 insect cells (baculovirus)
T1 sequence (P53197 241-550): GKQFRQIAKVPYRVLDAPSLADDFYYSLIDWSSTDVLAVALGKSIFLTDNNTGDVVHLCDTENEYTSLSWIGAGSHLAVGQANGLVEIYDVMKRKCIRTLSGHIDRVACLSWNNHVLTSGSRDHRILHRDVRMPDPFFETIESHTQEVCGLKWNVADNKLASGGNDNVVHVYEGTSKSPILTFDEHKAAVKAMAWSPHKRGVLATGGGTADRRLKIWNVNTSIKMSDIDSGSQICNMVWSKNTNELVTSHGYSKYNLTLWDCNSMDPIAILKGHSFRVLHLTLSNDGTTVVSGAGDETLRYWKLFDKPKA
Experimental: (§1) Activators were cloned into the pFastBac HT A vector, with an N-terminal 2xStrep-Tag II. For some experiments, we constructed vectors for expression of the WD40 domains of yeast Cdh1 (aa 241–550; pNH144), human Cdh1 (aa 165–484; pNH164), or human Cdc20 (aa 162–484; pNH188). For SMOR, a C-terminal GFP tag was added. Bacmid plasmids are listed in Supplementary Table 3. Plasmids were transformed into DH10Bac cells, and purified Bacmid was used to transfect Sf9 cells to generate P1 baculovirus, which was used to generate P2 virus. SF9 cells were infected with the P2 virus for 48 h. Flash-frozen pellets were lysed by sonication or high-pressure homogenization in lysis buffer B (50 mM Tris-HCl pH 8, 150 mM KCl, 0.5 mM EDTA, 1 mM DTT, 10% Glycerol, EDTA-free protease inhibitor tablet, 1 µg ml^−1 pepstatin A). After the lysate was applied to the StrepTrap column, the column was washed with wash buffer B (lysis buffer B lacking protease inhibitors) and eluted in the same buffer containing 2.5 mM desthiobiotin.
(§2) For all SMOR experiments, 24 × 50 mm high precision glass coverslips (Bioscience Tools) and drilled microscope slides were passivated with a combination of PEG and PEG-biotin (coverslips) or PEG only (slides) following a previously published protocol for SiMPull[31]. Reaction chambers (~20 µl) were created using double-sided tape and epoxy. Protein was immobilized on the surface with 0.2 mg ml^−1 NeutrAvidin in buffer C (20 mM HEPES pH 7.5, 150 mM KCl, 10% glycerol, 0.05% Tween-20, 1 mM DTT). Excess NeutrAvidin was washed away and incubated with either biotin-conjugated mouse monoclonal anti-Strep-Tag II antibody (LSBio, Cat. No. LS-C203632-100) or biotin-conjugated rabbit polyclonal anti-GFP antibody (Rockland, Cat. No. 600-406-215) diluted in buffer C + BSA (0.1 mg ml^−1; Molecular Biology Grade Bovine Serum Albumin). Activator WD40 and activated APC/C (typically 50 µl containing about 65 ng APC/C, of which only a small fraction is immobilized on the glass) were immobilized using anti-Strep-Tag II, while APC/C alone was immobilized with anti-GFP. SMOR results were similar when performed in the buffer (wash buffer B) used in polarization anisotropy.
(§3) To capture dynamic protein–protein interactions, dye-labeled substrate diluted in buffer C + BSA was added to the chamber containing immobilized proteins. Interactions were imaged by TIRF microscopy as described below. For optimal signal-to-noise ratio, peptide concentration was no greater than 1 nM. Protein substrates included Hsl1 aa 667–872 and a C-terminal HaloTag followed by a TAP tag, and were produced by translation in rabbit reticulocyte lysates using TnT Quick Coupled Transcription/Translation System (Promega) (see Supplementary Table 5 for plasmids). Protein was purified with magnetic IgG beads and labeled on the bead with JF549 or JF646 dye so that unbound dye could be washed away. Purified dye-labeled protein was then cleaved from the beads using TEV protease. Before adding substrate to the reaction chamber, oxygen scavenging reagents were added (10 nM protocatechuate-3,4-dioxygenase, 2.5 mM protocatechuic acid, and 1 mM Trolox)[41]. A detailed description of the SMOR analysis pipeline is found in Supplementary Note 1.
(§4) Microscopy was performed with a Nikon Eclipse TE2000-E with Perfect Focus with a 100 × 1.49na oil, Apo TIRF DIC N2, 0.13-0.2, WD0.12 objective. Movies were recorded using the Andor iXon DU-897E-CSO. For visualizing GFP-tagged protein, a 491 nm laser was used with an ET525/50 (Chroma) filter for emission. For visualizing JF549-labeled substrate, a 561 nm laser was used with an ET595/50 (Chroma) filter for emission. For visualizing all Cy5-labeled peptides and JF646-labeled substrates, a 640 nm laser was used with an ET685/70 filter (Chroma) for emission. […]

hCdh1^WD40 = molecular target: T2, hCdh1^WD40 (Homo sapiens, UniProt Q9UM11); assay: SMOR assay, human Cdh1 WD40; conditions: for mean dwell time: representative of two independent experiments, ± SE, ligand ≤1 nM, buffer C + BSA
T2 construct: human Cdh1 (aa 165–484; pNH164); made in house; host or cells: Sf9 insect cells (baculovirus)
T2 sequence (Q9UM11 165-484): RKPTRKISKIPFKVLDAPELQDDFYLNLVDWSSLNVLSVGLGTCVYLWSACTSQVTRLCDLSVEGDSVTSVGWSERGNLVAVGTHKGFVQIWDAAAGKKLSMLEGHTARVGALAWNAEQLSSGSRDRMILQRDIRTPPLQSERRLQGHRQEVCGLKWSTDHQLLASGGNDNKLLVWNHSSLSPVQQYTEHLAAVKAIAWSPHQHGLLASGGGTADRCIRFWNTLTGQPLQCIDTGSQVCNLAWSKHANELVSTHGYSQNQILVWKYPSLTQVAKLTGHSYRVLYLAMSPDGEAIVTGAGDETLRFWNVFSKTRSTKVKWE
Experimental: as §1, §2, §3, §4

hCdc20^WD40 = molecular target: T3, hCdc20^WD40 (Homo sapiens, UniProt Q12834); assay: SMOR assay, human Cdc20 WD40; conditions: for Dwell Time: Clb5: Not 3x shutter speed
T3 construct: human Cdc20 (aa 162–484; pNH188); made in house; host or cells: Sf9 insect cells (baculovirus)
T3 sequence (Q12834 162-484): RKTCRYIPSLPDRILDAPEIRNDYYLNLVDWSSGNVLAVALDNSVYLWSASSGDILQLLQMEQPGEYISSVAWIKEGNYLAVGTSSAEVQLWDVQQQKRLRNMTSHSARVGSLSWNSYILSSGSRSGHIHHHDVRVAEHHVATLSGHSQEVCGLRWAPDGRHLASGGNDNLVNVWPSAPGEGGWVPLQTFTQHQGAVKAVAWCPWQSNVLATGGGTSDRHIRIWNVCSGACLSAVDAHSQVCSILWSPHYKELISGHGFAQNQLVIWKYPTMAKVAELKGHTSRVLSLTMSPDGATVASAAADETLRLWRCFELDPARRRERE
Experimental: as §1, §2, §3, §4

[1] = Supplementary Table 1, replicate 1
[2] = Supplementary Table 1, replicate 2
[3] = Supplementary Table 1, replicate 1 (movie listed first)
[4] = Supplementary Table 1, replicate 2 (movie listed second)

| Molecule | Dwell Time (in words) (Cdh1^WD40; [1]) | Dwell Time (in words) (Cdh1^WD40; [2]) | Dwell Time (in words) (hCdh1^WD40; [1]) | Dwell Time (in words) (hCdh1^WD40; [2]) | Dwell Time (hCdc20^WD40; [3]) [s] | Dwell Time (hCdc20^WD40; [4]) [s] | mean dwell time (hCdc20^WD40; less than three times the frame rate, therefore less reliable (footnote a)) [s^a] | binding (in words) (Cdh1^WD40) | binding (in words) (hCdh1^WD40) | binding (in words) (hCdc20^WD40) | Dwell Time (in words) (hCdc20^WD40; [1]) | Dwell Time (in words) (hCdc20^WD40; [2]) | Dwell Time (hCdh1^WD40; [3]) [s] | Dwell Time (hCdh1^WD40; [4]) [s] | mean dwell time (hCdh1^WD40) |
| --- | --- | --- | --- | --- | --- | --- | --- | --- | --- | --- | --- | --- | --- | --- | --- |
| CC(C)C[C@H](NC(=O)[C@H](C)NC(=O)[C@H](CCCNC(=N)N)NC(=O)[C@H](CCCNC(=N)N)NC(=O)[C@@H]1CCCN1C(=O)[C@H](CCCCN)NC(=O)[C@H](CO)NC(=O)[C@H](CC(=O)O)NC(=O)[C@@H](N)CCC(N)=O)C(=O)N[C@H](C(=O)N[C@@H](CC(=O)O)C(=O)N[C@H](C(=O)N1CCC[C@H]1C(=O)N[C@H](C(=O)N[C@@H](CC(N)=O)C(=O)N[C@@H](CC(N)=O)C(=O)N[C@@H](CC(N)=O)C(=O)N1CCC[C@H]1C(=O)N[C@@H](CC(C)C)C(=O)N[C@@H](CO)C(=O)N[C@@H](CCC(N)=O)C(=O)N[C@@H](CCCCN)C(=O)O)C(C)C)C(C)C)[C@@H](C)O [Clb5 D box] (H-QDSKPRRALTDVPVNNNPLSQK-OH; N-terminus and C-terminus assumed) | single frame | single frame | single frame | single frame | 0.054 ± 0.001 | 0.058 ± 0.001 | 0.054 |  |  |  |  |  |  |  |  |
| CC[C@H](C)[C@H](NC(=O)[C@H](CC(=O)O)NC(=O)[C@H](CO)NC(=O)[C@H](C)NC(=O)[C@H](C)NC(=O)[C@H](C)NC(=O)[C@H](C)NC(=O)[C@H](CCCCN)NC(=O)[C@@H]1CCCN1C(=O)[C@H](CCCCN)NC(=O)[C@H](CCC(N)=O)NC(=O)[C@@H](N)CCC(=O)O)C(=O)N[C@H](C(=O)N[C@@H](C)C(=O)N[C@@H](CO)C(=O)N[C@@H](Cc1ccccc1)C(=O)N[C@@H](CC(N)=O)C(=O)N[C@@H](CCCCN)C(=O)N[C@@H](CCSC)C(=O)N[C@@H](CC(N)=O)C(=O)N[C@@H](CCCCN)C(=O)O)[C@@H](C)O [Hsl1 D box mutant] (H-EQKPKAAAASDITASFNKMNK-OH; N-terminus and C-terminus assumed) | no binding | no binding | no binding |  |  |  |  | negligible binding; also recorded: No binding | No binding | No binding | no binding |  |  |  |  |
| CC[C@H](C)[C@H](NC(=O)[C@H](Cc1ccccc1)NC(=O)[C@H](CO)NC(=O)[C@H](CCCCN)NC(=O)[C@H](CO)NC(=O)[C@H](CCCNC(=N)N)NC(=O)[C@H](CC(N)=O)NC(=O)[C@H](CC(N)=O)NC(=O)[C@H](CC(=O)O)NC(=O)[C@H](CCCCN)NC(=O)[C@H](C)NC(=O)[C@H](C)NC(=O)[C@H](CC(C)C)NC(=O)[C@@H]1CCCN1C(=O)[C@H](CC(C)C)NC(=O)[C@H](CCCNC(=N)N)NC(=O)CNC(=O)[C@H](CCC(N)=O)NC(=O)[C@H](CCC(N)=O)NC(=O)[C@H](CCC(N)=O)NC(=O)[C@H](C)N)C(=O)N[C@@H](CCCCN)C(=O)O [ySecurin D box] (H-AQQQGRLPLAAKDNNRSKSFIK-OH; N-terminus and C-terminus assumed) | single frame | single frame | single frame | single frame |  |  |  |  |  |  | single frame | single frame |  |  |  |
| LIYVDKENGEPGTR-K(Cy5) [hSecurin KEN, Cy5-labeled KEN box peptide of human securin/Pttg1] | no binding | no binding |  |  |  |  |  | No binding |  | did not bind human Cdc20^WD40; also recorded: No binding | no binding | no binding | 0.171 ± 0.004 | 0.174 ± 0.003 | 0.174 ± 0.003 s and 0.174 s |
| LPKATRKALGTVNRATEKSVK-K(Cy5) [AurKB D box, Cy5-labeled D box peptide of Aurora B kinase] | single frame | single frame |  |  |  |  |  |  |  | single-frame interactions only | single frame | single frame | 0.202 ± 0.003 | 0.135 ± 0.003 | 0.202 ± 0.003 s and 0.202 s |
| SKAAQFMLYEETAEERNI-K(Cy5) [Acm1 ABBA, Cy5-labeled Cdh1-specific ABBA motif from pseudosubstrate yeast protein Acm1] | single frame | single frame | no binding | no binding |  |  |  |  | No binding | No binding | no binding | no binding |  |  |  |
